In patent US20240293318A1, “CLEAVABLE LINKER-CONTAINING IONIZABLE LIPIDS AND LIPID CARRIERS FOR THERAPEUTIC COMPOSITIONS” (Flagship Pioneering Innovations VII, LLC, priority 2023, published 2024):

How the values were obtained:
[1] = Zeta potential assay of LNPs; type: physicochemical; details: LNP, hEPO mRNA, Lipid:Cholesterol:DSPC:PEG-2k 50:38.5:10:1.5, N:P 6
From the text: (§1) Various lipid nanoparticle compositions comprising a nucleic acid payload are characterized by a variety of methods. For example, dynamic light scattering (DLS) is used to determine particle sizes (Wyatt Dynapro Platereader 111). In addition, instruments such as the Zetasizer Nano ZS (Malvern Instruments Ltd) are used to measure multiple physical properties of a lipid nanoparticle composition, such as particle size, polydispersity index (PDI), and zeta potential. Fluorescence-based assays are used to determine the efficiencies of nucleic acid encapsulation in the lipid nanoparticles. Fluorescence-based assays are used to determine the “apparent pKa” of the lipid nanoparticles. Both fluorescence assays are evaluated on a Varioskanlux plate reader (ThermoScientific).
A Zetasizer Nano ZS (Malvern Instruments Ltd) is used to determine the zeta potential of the nanoparticle compositions. Briefly, a 5 uL aliquot of an approximately 0.5 mg mRNA/mL sample is diluted into 800 uL 0.1×PBS. This sample is then transferred to a disposable conducting cuvette and the zeta potential is measured.

[2] = Encapsulation efficiency, fluorescence based Ribogreen assay; type: physicochemical; details: LNP, hEPO mRNA, Lipid:Cholesterol:DSPC:PEG-2k 50:38.5:10:1.5, N:P 6
Experimental: For lipid nanoparticle formulations containing an RNA, a QUANTIT™ RIBOGREEN® RNA assay (Invitrogen Corporation) is used to evaluate the encapsulation of RNA within the lipid nanoparticle formulation.
The samples are diluted to ˜10 ug/ml in TE buffer. In a 96 well plate, 50 ul of the diluted sample is added to 50 uL TE buffer in duplicates and 20 uL of diluted sample is added to 80 uL Triton X buffer (2% triton in TE buffer) in duplicates. The plate is incubated for 10 minutes at room temperature. Next, RIBOGREEN® is diluted 1:200 in TE BUFFER, and 100 uL is added to each sample well. The fluorescence intensity is measured using a fluorescence plate reader (e.g., Varioskanlux, ThermoScientific) at an excitation wavelength of about 480 nm and an emission wavelength of about 520 nm. The encapsulation efficiency can be determined by using the percentage ratio of non-encapsulated RNA (TE sample) over the total RNA (TX sample), then subtracting from 100 to find the percentage of encapsulated RNA amount.
(§2) LNPs were characterized by dynamic light scattering (DLS) measurement for measuring its hydrodynamic radius and polydispersity index (PDI). Encapsulation efficiency (EE %) and total RNA concentration were quantitated using a fluorescence based Ribogreen assay.

[3] = LNP size and polydispersity index by dynamic light scattering (DLS); type: physicochemical; details: hEPO mRNA, Lipid:Cholesterol:DSPC:PEG-2k 50:38.5:10:1.5, N:P 6
From the text: as §1
After formulation and processing of the lipid nanoparticle compositions, the Z-average size of lipid nanoparticle composition are assayed by dynamic light scattering (DLS) (e.g., using a Wyatt Dynapro Platereader III or Malvern Zetasizer ZS). Briefly, an aliquot of 2 uL of the processed nanoparticle composition mixture (at an RNA concentration of approximately 0.5 mg/mL) is diluted into 50 uL phosphate buffered saline (0.1×PBS) and loaded into a 384 well plate. The sample is then analyzed to determine nanoparticle size.
as §2

C57BL/6 female mice = test: In vivo hEPO expression of hEPO mRNA LNPs, serum ELISA; details: LNP 50:38.5:10:1.5, N:P 6, 0.2 mg/kg hEPO mRNA, tail vein injection, blood serum 6 h post-administration
Experimental: In this example, messenger RNA molecules encoding hEPO proteins were formulated in lipid nanoparticles for delivery in vivo. The lipid nanoparticle (LNP) formulations comprised of a lipid composition of ionizable lipid: helper lipid: cholesterol. DMG-PEG2k at 50:10:38.5:1.5 mol %. The lipid mixture in ethanol was mixed with hEPO mRNA in RNA acidifying buffer (10 mM citrate, pH 4) at an ionizable-lipid-nitrogen-to-RNA-phosphate ratio (N:P) of 6 using a microfluidic device (Precision NanoSystems, Inc.) at a combined flow rate of 10 mL/min (7.5 mL/min for aqueous buffer, RNA and 2.5 mL/min for ethanol, lipid mix). The resulting particles were neutralized by buffer exchange into Dulbecco's phosphate buffer solution via PD-10 desalting column. The neutralized particles were concentrated using 100 kDa AMICON® Ultra centrifugal filters and sterile filtered using 0.2 um syringe filters. Samples were then characterized and diluted as needed (3 replicates).
The in vivo studies were performed in C57BL/6 female mice at 6 to 8 weeks weighing in at approximately 20 g. The LNPs formulated with different ionizable lipids at 0.2 mg/kg of hEPO mRNA were administered by tail vein injection and animals were euthanized at 6 h post-administration for blood serum sample collection. The hEPO levels from the samples were analyzed and cross-compared by enzyme-linked immunoassay (ELISA) according to manufacturer's protocol. The hEPO expression levels for each of the LNPs was compared to a control LNP comprising SM102 (DC Chemicals Cat. No. DC52025). (FIG. 1).

[4] = Apparent pKa of LNPs (TNS assay); type: physicochemical; details: LNP, hEPO mRNA, Lipid:Cholesterol:DSPC:PEG-2k 50:38.5:10:1.5, N:P 6
From the text: as §1
The apparent pKa of lipid nanoparticle composition is measured using a 6-(p-Toluidino)-2-naphthalenesulfonic acid (TNS) assay. Briefly, lipid nanoparticles (10 uL of approximately 0.5 mg mRNA/mL) and TNS probe (40 uL of 1 mM stock) are added to 750 uL of TNS buffer (25 mM citric acid, 20 mM sodium phosphate, 150 mM NaCl, and 20 mM ammonium acetate), at a pH ranging from 2 to 10. 20 uL of each sample are added to 80 uL of buffer at each pH in a 96-well plate. The plate is incubated for 10 minutes, and the fluorescence signal is measured by means of a spectrofluorometer (Varioskanlux, ThermoScientific) with excitation/emission settings of λex=321 nm, and λem=445 nm. The apparent pKa of the nanoparticle composition is determined by deriving the pH at which 50% of the pH 2 fluorescent signal is present. All datapoints are normalized to the fluorescent signal at pH 2.

Structure (SMILES)	Zeta [1]	EE [2]	PDI [3]	Size [3]	hEPO (C57BL/6 female mice)	pKa [4]
CCCCCCCCCCCCCCOC(=O)CCN(CCO)CCCCCCCC(=O)OC(CCCCCCCC)CCCCCCCC [Lipid 1]	−8.8 mV	97.9%	0.267	65.8 nm	0.00 ng/mL	5.1
CCCCCCCCCCCCCOC(=O)CCN(CCO)CCCCCCCC(=O)OC(CCCCCCCC)CCCCCCCC [Lipid 2]	0.1 mV	97.9%	0.399	68.8 nm	0.00 ng/mL	5.1
CCCCCCCCCCCCOC(=O)CCN(CCO)CCCCCCCC(=O)OC(CCCCCCCC)CCCCCCCC [Lipid 3]	−9.2 mV	97.6%	0.48	62.8 nm	0.00 ng/mL	5.1
CCCCCCCCCCCOC(=O)CCN(CCO)CCCCCCCC(=O)OC(CCCCCCCC)CCCCCCCC [Lipid 4]	−9.3 mV	97.5%	0.103	56.2 nm	0.00 ng/mL	5.1
CCCCCCCCCCCOC(=O)CCCCCN(CCO)CCCCCCCNP(=O)(OCCCCCCCCC)OCCCCCCCCC [Lipid 5]	−1.0 mV	95.3%	0.358	87.4 nm	114.89 ng/mL	6.8
CCCCCCCCCCCOC(=O)CCCCCN(CCO)CCCCCCCNP(=O)(OCCCCCCCC)OCCCCCCCC [Lipid 6]	−0.4 mV	95.8%	0.227	132.7 nm	304.28 ng/mL	6.9
CCCCCCCCCCCOC(=O)CCCCCN(CCO)CCCCCCCOP(=O)(NCCCCCCCCC)OCCCCCCCCC (centres unmarked) [Lipid 7]	−2.0 mV	97.2%	0.296	145.3 nm	80.47 ng/mL	6.9
CCCCCCCCCCCOC(=O)CCCCCN(CCO)CCCCCCCOP(=O)(NCCCCCCCC)OCCCCCCCC (centres unmarked) [Lipid 8]	0.1 mV	94.2%	0.302	134.7 nm	93.09 ng/mL	7.0
CCCCCCCCCCCOP(=O)(NCCCCCN(CCO)CCCCCCCC(=O)OC(CCCCCCCC)CCCCCCCC)OCC (centres unmarked) [Lipid 9]	–	–	–	–	184.44 ng/mL	7.0
CCCCCCCCCCOP(=O)(NCCCCCN(CCO)CCCCCCCC(=O)OC(CCCCCCCC)CCCCCCCC)OCC (centres unmarked) [Lipid 10]	0.8 mV	99.6%	0.064	85.6 nm	90.05 ng/mL	7.2
CCCCCCCCCOP(=O)(NCCCCCN(CCO)CCCCCCCC(=O)OC(CCCCCCCC)CCCCCCCC)OCC (centres unmarked) [Lipid 11]	2.6 mV	99.7%	0.08	94.4 nm	63.81 ng/mL	7.3
CCCCCCCCCCCNP(=O)(OCC)OCCCCCN(CCO)CCCCCCCOP(=O)(NCCCCCCCCC)OCCCCCCCCC (centres unmarked) [Lipid 12]	3.5 mV	99.3%	0.316	87.6 nm	0.00 ng/mL	8.3
CCCCCCCCCNP(=O)(OCCCCCCCCC)OCCCCCCCN(CCO)CCCCCOP(=O)(NCCCCCCCCC)OCCCCCCCCC (centres unmarked) [Lipid 13]	2.4 mV	96.7%	0.108	67.1 nm	49.71 ng/mL	7.8
CCCCCCCCCCCNP(=O)(OCC)OCCCCCN(CCO)CCCCCCCC(=O)OC(CCCCCCCC)CCCCCCCC (centres unmarked) [Lipid 14]	0.9 mV	98.3%	0.248	101.5 nm	33.98 ng/mL	6.9
